Measurements from patent publication US20260001928A1 (CORTERIA PHARMACEUTICALS, priority 2022, published 2026).
*1 amine or outer side, *2 acyl side, *3 side chain or, on linkers, in order; H or OH if unused. Where a SMILES comes first, the peptide text is derived from it. Side-chain parts run from the residue outwards. [ ]: non-standard residue; d: D form. The star is where a group is joined. C18 diacid = O=C(O)CCCCCCCCCCCCCCCCC(=O)*; C16 diacid = O=C(O)CCCCCCCCCCCCCCC(=O)*; γGlu = O=C(O)[C@H](CCC(=O)[*:2])N[*:1]; NMeI = CC[C@H](C)[C@H](NC)C(=O)O; Dap = NC[C@H](N)C(=O)O; AEEA = NCCOCCOCC(=O)O; Aib = CC(C)(N)C(=O)O

Legend:
human CRF2a receptor = biological target: T1, human CRF2a receptor (Homo sapiens, UniProt Q13324); assay: Activity at human CRF2a receptor, cAMP functional assay in TeloHEAC cells; assay type: cell-based; conditions: TeloHEAC cells stably expressing human CRF2a receptor, relative to urocortin 2 (100 nM = 100%)
T1 construct: expressed in transfected cells; host or cells: TeloHEAC cells
T1 sequence (Q13324 1-411): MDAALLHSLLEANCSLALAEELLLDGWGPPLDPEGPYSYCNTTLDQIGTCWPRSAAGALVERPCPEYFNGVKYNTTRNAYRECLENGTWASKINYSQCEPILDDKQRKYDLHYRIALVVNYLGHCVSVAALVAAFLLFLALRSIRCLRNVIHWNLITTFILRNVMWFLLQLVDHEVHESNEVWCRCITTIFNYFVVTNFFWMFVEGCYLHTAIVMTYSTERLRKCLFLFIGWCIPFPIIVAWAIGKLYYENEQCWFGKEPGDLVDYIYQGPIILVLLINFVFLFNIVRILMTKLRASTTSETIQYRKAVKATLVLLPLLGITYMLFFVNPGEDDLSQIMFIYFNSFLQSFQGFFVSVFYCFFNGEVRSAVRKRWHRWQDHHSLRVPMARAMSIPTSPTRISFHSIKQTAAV
How it was run: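 cAMP accumulation was measured by HTRF 665/620 nm ratio after 30 min at 37° C compound exposure (16 twofold dilutions) of CRF2a-expressing TeloHEAC cells, 10000/well, in HEPES-buffered HBSS plus IBMX. Activity was normalised to urocortin 2 at 100 nM (100%), and EC50 was the concentration giving half-maximal activation.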

CFR1R receptor = biological target: T2, CFR1R receptor (Homo sapiens, UniProt P34998); assay: Activity at anti-target CFR1R receptor, cAMP assay in CRF1R-overexpression CHO-K1 cells; assay type: cell-based; conditions: 100% = Sauvagine at 100 nM; for EC50: cAMP
T2 construct: host or cells: CHO-K1 (clone 2)
T2 sequence (P34998 24-415): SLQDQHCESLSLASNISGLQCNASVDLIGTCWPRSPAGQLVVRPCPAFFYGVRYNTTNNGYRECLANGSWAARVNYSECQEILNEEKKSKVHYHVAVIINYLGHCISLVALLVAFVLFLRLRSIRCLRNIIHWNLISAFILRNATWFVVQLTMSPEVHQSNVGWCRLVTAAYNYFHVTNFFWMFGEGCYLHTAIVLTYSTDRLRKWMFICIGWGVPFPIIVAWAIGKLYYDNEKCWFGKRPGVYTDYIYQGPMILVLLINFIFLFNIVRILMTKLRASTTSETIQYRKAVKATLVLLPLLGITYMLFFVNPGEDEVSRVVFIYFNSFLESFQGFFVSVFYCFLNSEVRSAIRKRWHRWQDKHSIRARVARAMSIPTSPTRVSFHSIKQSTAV
How it was run: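 Signal is normalised to 100 nM Sauvagine, taken as 100% activation, in clone 2 cells plated at a final 4000 cells/well from frozen stocks.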

[1] = Chemical stability in buffer (pH 7.4 / pH 4.5), % purity loss; assay type: physicochemical; conditions: 40° C. vs 5° C., 14 or 28 days; for Buffer stability pH 4.5 % purity loss: 100 mM acetate buffer pH 4.5; for Buffer stability pH 7.4 % purity loss: 100 mM phosphate buffer pH 7.4
How it was run: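 Compounds dissolved at 10 mg/mL target in 100 mM phosphate (pH 7.4) or 100 mM acetate (pH 4.5) buffer for 1 h at room temperature, then centrifuged. Diluted supernatant stored at 5 °C or 40 °C for 14 or 28 days; % purity loss by LC-UV.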

Sprague Dawley rats = assay: Effect on systolic blood pressure, telemetry in Sprague Dawley rats; assay type: in vivo, rat; conditions: 0.1 mg/kg SC; for Systolic blood pressure (Mean) % change from baseline, 8 h / Systolic blood pressure (Mean) % change from baseline, 12 h / Systolic blood pressure (Mean) % change from baseline, 24 h: n=2; for Duration of action: last time point with an effect on BP still observed
How it was run: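 Sprague Dawley rats with abdominal-aorta telemetry catheters, recovered ≥10 days, received 0.1 mg/kg SC of compound or vehicle. Systolic pressure recorded 1 h pre-dose as baseline, then continuously up to 48 hours, expressed as % change from baseline; duration of action is last time point with a BP effect (n=2).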

Compound	EC50 (human CRF2a receptor)	Emax (% I) (CFR1R receptor)	EC50 (CFR1R receptor)	Buffer stability pH 4.5 % purity loss [1]	Buffer stability pH 7.4 % purity loss [1]	Systolic blood pressure (Mean) % change from baseline, 8 h (Sprague Dawley rats)	Systolic blood pressure (Mean) % change from baseline, 12 h (Sprague Dawley rats)	Systolic blood pressure (Mean) % change from baseline, 24 h (Sprague Dawley rats)	Duration of action (Sprague Dawley rats)
CC[C@H](C)[C@H](NC(C)=O)C(=O)N[C@H](C(=O)N[C@@H](CC(C)C)C(=O)N[C@@H](CO)C(=O)N[C@@H](CC(C)C)C(=O)N[C@@H](CC(=O)O)C(=O)N[C@@H](C(=O)N1CCC[C@H]1C(=O)N[C@H](C(=O)N[C@@H](CCCCN)C(=O)N[C@@H](CC(C)C)C(=O)N[C@@H](CCCCNC(=O)CC[C@H](NC(=O)CCCCCCCCCCCCCCC(=O)O)C(=O)O)C(=O)N[C@@H](CCCCN)C(=O)N[C@H](C(=O)N[C@@H](CC(C)C)C(=O)N[C@@H](CC(C)C)C(=O)N[C@@H](CCC(=O)O)C(=O)N[C@@H](CCC(N)=O)C(=O)N[C@@H](CCC(=O)O)C(=O)N[C@@H](CCCCN)C(=O)N[C@@H](CCC(N)=O)C(=O)N[C@@H](CCCCN)C(=O)N[C@@H](CCCCN)C(=O)N[C@@H](CCC(N)=O)C(=O)N[C@@H](CCCNC(=N)N)C(=O)N[C@@H](CCC(=O)O)C(=O)N[C@@H](CCC(N)=O)C(=O)N[C@@H](C)C(=O)N[C@@H](CCC(=O)O)C(=O)N[C@H](C(=O)N[C@@H](CC(N)=O)C(=O)N[C@@H](C)C(=O)N[C@@H](CCC(N)=O)C(=O)N[C@H](C(=O)N[C@@H](CC(C)C)C(=O)N[C@@H](C)C(=O)N[C@@H](CCC(N)=O)C(=O)N[C@H](C(N)=O)C(C)C)[C@@H](C)CC)[C@@H](C)O)[C@@H](C)CC)[C@@H](C)CC)C(C)C)C(C)C [compound 47] (Ac-IVLSLD[dV]PIKLK([γGlu-C16 diacid])KILLEQEKQKKQREQAETNAQILAQV-NH2)	0.09 nM	10 % I	> 250 nM	0%	9.0%	−14%	−6%	2%	23 h
CC[C@H](C)[C@H](NC(C)=O)C(=O)N[C@H](C(=O)N[C@@H](CC(C)C)C(=O)N[C@@H](CO)C(=O)N[C@@H](CC(C)C)C(=O)N[C@@H](CC(=O)O)C(=O)N[C@@H](C(=O)N1CCC[C@H]1C(=O)N[C@H](C(=O)N[C@@H](CCCCN)C(=O)N[C@@H](CC(C)C)C(=O)N[C@@H](CCCCNC(=O)CC[C@H](NC(=O)CCCCCCCCCCCCCCC(=O)O)C(=O)O)C(=O)N[C@@H](CCCCN)C(=O)N[C@H](C(=O)N[C@@H](CC(C)C)C(=O)N[C@@H](CC(C)C)C(=O)N[C@@H](CCC(=O)O)C(=O)N[C@@H](CCC(N)=O)C(=O)N[C@@H](CCC(=O)O)C(=O)N[C@@H](CCCCN)C(=O)N[C@@H](CCC(N)=O)C(=O)N[C@@H](CCCCN)C(=O)N[C@@H](CCCCN)C(=O)N[C@@H](CCC(N)=O)C(=O)N[C@@H](CCCNC(=N)N)C(=O)N[C@@H](CCC(=O)O)C(=O)N[C@@H](CCC(N)=O)C(=O)N[C@@H](C)C(=O)N[C@@H](CCC(=O)O)C(=O)N[C@H](C(=O)N[C@@H](CC(N)=O)C(=O)N[C@@H](CN)C(=O)N[C@@H](CCC(N)=O)C(=O)N[C@H](C(=O)N[C@@H](CC(C)C)C(=O)N[C@@H](C)C(=O)N[C@@H](CCC(N)=O)C(=O)N[C@H](C(N)=O)C(C)C)[C@@H](C)CC)[C@@H](C)O)[C@@H](C)CC)[C@@H](C)CC)C(C)C)C(C)C [compound 55] (Ac-IVLSLD[dV]PIKLK([γGlu-C16 diacid])KILLEQEKQKKQREQAETN[Dap]QILAQV-NH2)	0.42 nM	5 % I	> 250 nM	28.9%	73.5%	−31%	−23%	0%	23 h
CC[C@H](C)[C@H](NC)C(=O)N[C@H](C(=O)N[C@@H](CC(C)C)C(=O)N[C@@H](CO)C(=O)N[C@@H](CC(C)C)C(=O)N[C@@H](CC(=O)O)C(=O)N[C@@H](C(=O)N1CCC[C@H]1C(=O)N[C@H](C(=O)N[C@@H](CCCCN)C(=O)N[C@@H](CC(C)C)C(=O)N[C@@H](CCCCNC(=O)CC[C@H](NC(=O)CCCCCCCCCCCCCCC(=O)O)C(=O)O)C(=O)N[C@@H](CCCCN)C(=O)N[C@H](C(=O)N[C@@H](CC(C)C)C(=O)N[C@@H](CC(C)C)C(=O)N[C@@H](CCC(=O)O)C(=O)N[C@@H](CCC(N)=O)C(=O)N[C@@H](CCC(=O)O)C(=O)N[C@@H](CCCCN)C(=O)N[C@@H](CCC(N)=O)C(=O)N[C@@H](CCCCN)C(=O)N[C@@H](CCCCN)C(=O)N[C@@H](CCC(N)=O)C(=O)N[C@@H](CCCNC(=N)N)C(=O)N[C@@H](CCC(=O)O)C(=O)N[C@@H](CCC(N)=O)C(=O)N[C@@H](C)C(=O)N[C@@H](CCC(=O)O)C(=O)N[C@H](C(=O)N[C@@H](CC(N)=O)C(=O)NC(C)(C)C(=O)N[C@@H](CCC(N)=O)C(=O)N[C@H](C(=O)N[C@@H](CC(C)C)C(=O)N[C@@H](C)C(=O)N[C@@H](CCC(N)=O)C(=O)N[C@H](C(N)=O)C(C)C)[C@@H](C)CC)[C@@H](C)O)[C@@H](C)CC)[C@@H](C)CC)C(C)C)C(C)C [compound 64] (H-[NMeI]VLSLD[dV]PIKLK([γGlu-C16 diacid])KILLEQEKQKKQREQAETN[Aib]QILAQV-NH2)	0.19 nM	4 % I	> 250 nM	nd/0 ^ %	–	−25%	−13%	3%	23 h
CC[C@H](C)[C@H](NC(C)=O)C(=O)N[C@H](C(=O)N[C@@H](CC(C)C)C(=O)N[C@@H](CO)C(=O)N[C@@H](CC(C)C)C(=O)N[C@@H](CC(=O)O)C(=O)N[C@@H](C(=O)N1CCC[C@H]1C(=O)N[C@H](C(=O)N[C@@H](CCCCN)C(=O)N[C@@H](CC(C)C)C(=O)N[C@@H](CCCCNC(=O)COCCOCCNC(=O)COCCOCCNC(=O)CC[C@H](NC(=O)CCCCCCCCCCCCCCCCC(=O)O)C(=O)O)C(=O)N[C@@H](CCCCN)C(=O)N[C@H](C(=O)N[C@@H](CC(C)C)C(=O)N[C@@H](CC(C)C)C(=O)N[C@@H](CCC(=O)O)C(=O)N[C@@H](CCC(N)=O)C(=O)N[C@@H](CCC(=O)O)C(=O)N[C@@H](CCCCN)C(=O)N[C@@H](CCC(N)=O)C(=O)N[C@@H](CCCCN)C(=O)N[C@@H](CCCCN)C(=O)N[C@@H](CCC(N)=O)C(=O)N[C@@H](CCCNC(=N)N)C(=O)N[C@@H](CCC(=O)O)C(=O)N[C@@H](CCC(N)=O)C(=O)N[C@@H](C)C(=O)N[C@@H](CCC(=O)O)C(=O)N[C@H](C(=O)N[C@@H](CC(N)=O)C(=O)N[C@@H](C)C(=O)N[C@@H](CCC(N)=O)C(=O)N[C@H](C(=O)N[C@@H](CC(C)C)C(=O)N[C@@H](C)C(=O)N[C@@H](CCC(N)=O)C(=O)N[C@H](C(N)=O)C(C)C)[C@@H](C)CC)[C@@H](C)O)[C@@H](C)CC)[C@@H](C)CC)C(C)C)C(C)C [compound 100] (Ac-IVLSLD[dV]PIKLK([AEEA-AEEA-γGlu-C18 diacid])KILLEQEKQKKQREQAETNAQILAQV-NH2)	0.41 nM	8 % I	> 250 nM	0%	13.2%	−22%	−12%	−9%	>24 h
